In patent publication US9579319B2 (Redx Pharma PLC, priority 2013, dated 2017):
Where two headings read alike, the source gives them in different places.

Tested on: Hedgehog signalling pathway
Assay: Gli-reporter NIH3T3 luciferase assay (Hedgehog pathway inhibition)
Type: cell-based
Conditions: NIH3T3, Gli-reporter NIH-3T3 cells, recombinant mouse sonic hedgehog, 24 hours, luminescence
In short: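 Mouse NIH3T3 cells with Gli-responsive luciferase reporter, pre-treated 1 h with compound (top final concentration 1 μM, 0.1% DMSO) in 0.5% calf serum medium. Then stimulated with recombinant mouse sonic hedgehog for 24 h at 37° C. Luminescence read-out (OneGLO), triplicates; IC50 reported.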

| IC50 (read-out: Gli luc IC50) | IC50 (read-out: Gli Luc nM (IC50)) | Structure (SMILES) |
| --- | --- | --- |
| < 10 nM | – | CN(C(=O)Nc1ccc(F)cc1C(F)(F)F)C1CCN(c2nnc(-c3ccnn3C)c3cccnc23)CC1 [Example 137, 3-[4-fluoro-2-(trifluoromethyl)phenyl]-1-methyl-1-[1-[5-(2-methylpyrazol-3-yl)pyrido[2,3-d]pyridazin-8-yl]-4-piperidyl]urea] |
| 10 to 200 nM | – | CN(Cc1ccc(F)cc1C(F)(F)F)CC1CCN(c2nnc(-c3ccnn3C)c3ccccc23)C1 (stereo not drawn) [Example 139, 1-[4-fluoro-2-(trifluoromethyl)phenyl]-N-methyl-N-[[1-[4-(2-methylpyrazol-3-yl)phthalazin-1-yl]pyrrolidin-3-yl]methyl]methanamine] |
| 10 to 200 nM | – | Cn1nccc1-c1nnc(N2CCC(NS(=O)(=O)c3ccc(F)cc3F)CC2)c2c1CCC2 [Example 141, 2,4-difluoro-N-[1-[1-(2-methylpyrazol-3-yl)-6,7-dihydro-5H-cyclopenta[d]pyridazin-4-yl]-4-piperidyl]benzenesulfonamide] |
| 10 to 200 nM | – | Cn1nccc1-c1nnc(N2CCC(Nc3ccc(F)cc3C(F)(F)F)CC2)c2c1CCC2 [Example 142, N-[4-fluoro-2-(trifluoromethyl)phenyl]-1-[1-(2-methylpyrazol-3-yl)-6,7-dihydro-5H-cyclopenta[d]pyridazin-4-yl]piperidin-4-amine] |
| 10 to 200 nM | – | CC(NC1CCN(c2nnc(-c3ccnn3C)c3ccccc23)CC1)c1ccc(F)cc1C(F)(F)F (stereo not drawn) [Example 143, N-[1-[4-fluoro-2-(trifluoromethyl)phenyl]ethyl]-1-[4-(2-methylpyrazol-3-yl)phthalazin-1-yl]piperidin-4-amine] |
| > 200 nM | – | CN(Cc1ccc(F)cc1C(F)(F)F)C1CCN(c2nnc(N3CCOCC3)c3ccccc23)CC1 [Example 144, N-[[4-fluoro-2-(trifluoromethyl)phenyl]methyl]-N-methyl-1-(4-morpholinophthalazin-1-yl)piperidin-4-amine] |
| > 200 nM | – | Fc1ccc(CNC2CCN(c3nnc(N4CCOCC4)c4ccccc34)CC2)c(C(F)(F)F)c1 [Example 145, N-[[4-fluoro-2-(trifluoromethyl)phenyl]methyl]-1-(4-morpholinophthalazin-1-yl)piperidin-4-amine] |
| > 200 nM | – | Cn1nccc1-c1nnc(N2CCC(NCc3ccc(F)cc3C(F)(F)F)CC2)c2ncccc12 [Example 146, N-[[4-fluoro-2-(trifluoromethyl)phenyl]methyl]-1-[5-(2-methylpyrazol-3-yl)pyrido[2,3-d]pyridazin-8-yl]piperidin-4-amine] |
| 10 to 200 nM | – | Cn1nccc1-c1nnc(N2CCC(NCc3ccc(F)cc3C(F)(F)F)CC2)c2c1CCC2 [Example 148, N-[[4-fluoro-2-(trifluoromethyl)phenyl]methyl]-1-[1-(2-methylpyrazol-3-yl)-6,7-dihydro-5H-cyclopenta[d]pyridazin-4-yl]piperidin-4-amine] |
| > 200 nM | – | Cc1c(-c2ccnn2C)nnc(N2CCC(N(C)C(=O)NC(C)(C)C)CC2)c1C [Example 152, 3-tert-butyl-1-[1-[4,5-dimethyl-6-(2-methylpyrazol-3-yl)pyridazin-3-yl]-4-piperidyl]-1-methyl-urea] |
| < 10 nM | – | CN(Cc1ccc(F)nc1C(F)(F)F)C1CCN(c2nnc(-c3ccnn3C)c3ccccc23)CC1 [Example 160, N-[[6-fluoro-2-(trifluoromethyl)-3-pyridyl]methyl]-N-methyl-1-[4-(2-methylpyrazol-3-yl)phthalazin-1-yl]piperidin-4-amine] |
| 10 to 200 nM | – | Cn1nccc1-c1nnc(N2CCC(NCc3cccc(F)c3F)CC2)c2ccccc12 [Example 163, N-[(2,3-difluorophenyl)methyl]-1-[4-(2-methylpyrazol-3-yl)phthalazin-1-yl]piperidin-4-amine] |
| 10 to 200 nM | – | Cn1nccc1-c1nnc(N2CCC(NCc3ccc(F)nc3C(F)(F)F)CC2)c2ccccc12 [Example 165, N-[[6-fluoro-2-(trifluoromethyl)-3-pyridyl]methyl]-1-[4-(2-methylpyrazol-3-yl)phthalazin-1-yl]piperidin-4-amine] |

Second part, the compound before the results:

| Structure (SMILES) | IC50 (read-out: Gli luc IC50) | IC50 (read-out: Gli Luc nM (IC50)) |
| --- | --- | --- |
| CN(C(=O)NC(C)(C)C)C1CCN(c2nnc(-c3ccnn3C)c3c2CCC3)CC1 [Example 133, 3-tert-butyl-1-methyl-1-[1-[1-(2-methylpyrazol-3-yl)-6,7-dihydro-5H-cyclopenta[d]pyridazin-4-yl]-4-piperidyl]urea] | 10 to 200 nM | – |
| CN(C1CCN(c2nnc(-c3ccnn3C)c3cccnc23)CC1)S(=O)(=O)c1ccc(F)cc1C(F)(F)F [Example 134, 4-fluoro-N-methyl-N-[1-[5-(2-methylpyrazol-3-yl)pyrido[2,3-d]pyridazin-8-yl]-4-piperidyl]-2-(trifluoromethyl)benzenesulfonamide] | 10 to 200 nM | – |
| CN(Cc1ccc(F)cc1C(F)(F)F)C1CCN(c2nnc(-c3ccnn3C)c3cccnc23)CC1 [Example 135, N-[[4-fluoro-2-(trifluoromethyl)phenyl]methyl]-N-methyl-1-[5-(2-methylpyrazol-3-yl)pyrido[2,3-d]pyridazin-8-yl]piperidin-4-amine] | 10 to 200 nM | – |
| CN(C(=O)Nc1ccc(F)cc1F)C1CCN(c2nnc(-c3ccnn3C)c3cccnc23)CC1 [Example 136, 3-(2,4-difluorophenyl)-1-methyl-1-[1-[5-(2-methylpyrazol-3-yl)pyrido[2,3-d]pyridazin-8-yl]-4-piperidyl]urea] | 10 to 200 nM | – |
| Cn1nccc1-c1nnc(N2CCC(NC(=O)Nc3ccc(F)cc3F)CC2)c2c1CCC2 [Example 138, 1-(2,4-difluorophenyl)-3-[1-[1-(2-methylpyrazol-3-yl)-6,7-dihydro-5H-cyclopenta[d]pyridazin-4-yl]-4-piperidyl]urea] | 10 to 200 nM | – |
| Cn1nccc1-c1nnc(N2CCC(CNCc3ccc(F)cc3C(F)(F)F)C2)c2ccccc12 (stereo not drawn) [Example 140, 1-[4-fluoro-2-(trifluoromethyl)phenyl]-N-[[1-[4-(2-methylpyrazol-3-yl)phthalazin-1-yl]pyrrolidin-3-yl]methyl]methanamine] | 10 to 200 nM | – |
| CN(Cc1ncccc1C(F)(F)F)C1CCN(c2nnc(-c3ccnn3C)c3ccccc23)CC1 [Example 147, N-methyl-1-[4-(2-methylpyrazol-3-yl)phthalazin-1-yl]-N-[[3-(trifluoromethyl)-2-pyridyl]methyl]piperidin-4-amine] | 10 to 200 nM | – |
| Cn1nccc1-c1nnc(N2CCC(NCc3cccc(C#N)c3)CC2)c2c1CCC2 [Example 149, 3-[[[1-[1-(2-methylpyrazol-3-yl)-6,7-dihydro-5H-cyclopenta[d]pyridazin-4-yl]-4-piperidyl]amino]methyl]benzonitrile] | > 200 nM | – |
| Cn1nccc1-c1nnc(N2CCC(NCc3ncccc3C(F)(F)F)CC2)c2ccccc12 [Example 150, 1-[4-(2-methylpyrazol-3-yl)phthalazin-1-yl]-N-[[3-(trifluoromethyl)-2-pyridyl]methyl]piperidin-4-amine] | 10 to 200 nM | – |
| Cc1c(-c2ccnn2C)nnc(N2CCC(N(C)C(=O)Nc3ccc(F)cc3C(F)(F)F)CC2)c1C [Example 151, 1-[1-[4,5-dimethyl-6-(2-methylpyrazol-3-yl)pyridazin-3-yl]-4-piperidyl]-3-[4-fluoro-2-(trifluoromethyl)phenyl]-1-methyl-urea] | < 10 nM | 5.12 nM |
| CN(Cc1ccc(F)cc1C(F)(F)F)C1CCN(c2nnc(-c3cnccn3)c3ccccc23)CC1 [Example 153, N-[[4-fluoro-2-(trifluoromethyl)phenyl]methyl]-N-methyl-1-(4-pyrazin-2-ylphthalazin-1-yl)piperidin-4-amine] | > 200 nM | – |
| CN(Cc1cnccc1C(F)(F)F)C1CCN(c2nnc(-c3ccnn3C)c3ccccc23)CC1 [Example 154, N-methyl-1-[4-(2-methylpyrazol-3-yl)phthalazin-1-yl]-N-[[4-(trifluoromethyl)-3-pyridyl]methyl]piperidin-4-amine] | < 10 nM | – |
| Cn1nccc1-c1nnc(N2CCC(NCc3cccnc3C(F)(F)F)CC2)c2ccccc12 [Example 155, 1-[4-(2-methylpyrazol-3-yl)phthalazin-1-yl]-N-[[2-(trifluoromethyl)-3-pyridyl]methyl]piperidin-4-amine] | < 10 nM | – |
| CN(Cc1cccnc1C(F)(F)F)C1CCN(c2nnc(-c3ccnn3C)c3ccccc23)CC1 [Example 157, N-methyl-1-[4-(2-methylpyrazol-3-yl)phthalazin-1-yl]-N-[[2-(trifluoromethyl)-3-pyridyl]methyl]piperidin-4-amine] | < 10 nM | – |
| CN(Cc1ccc(F)cc1Cl)C1CCN(c2nnc(-c3ccnn3C)c3ccccc23)CC1 [Example 158, N-[(2-chloro-4-fluoro-phenyl)methyl]-N-methyl-1-[4-(2-methylpyrazol-3-yl)phthalazin-1-yl]piperidin-4-amine] | 10 to 200 nM | – |
| Cn1nccc1-c1nnc(N2CCC(NS(=O)(=O)c3ccc(F)cc3C(F)(F)F)CC2)c2c1CCC2 [Example 159, 4-fluoro-N-[1-[1-(2-methylpyrazol-3-yl)-6,7-dihydro-5H-cyclopenta[d]pyridazin-4-yl]-4-piperidyl]-2-(trifluoromethyl)benzenesulfonamide] | < 10 nM | – |
| Cn1nccc1-c1nnc(N2CCC(NC(=O)NC(C)(C)C)CC2)c2c1CCC2 [Example 161, 1-tert-butyl-3-[1-[1-(2-methylpyrazol-3-yl)-6,7-dihydro-5H-cyclopenta[d]pyridazin-4-yl]-4-piperidyl]urea] | 10 to 200 nM | – |
| CN(Cc1ccccc1OC(F)(F)F)C1CCN(c2nnc(-c3ccnn3C)c3ccccc23)CC1 [Example 162, N-methyl-1-[4-(2-methylpyrazol-3-yl)phthalazin-1-yl]-N-[[2-(trifluoromethoxy)phenyl]methyl]piperidin-4-amine] | < 10 nM | – |
| COC(=O)c1ccc(CNC2CCN(c3nnc(-c4ccnn4C)c4ccccc34)CC2)nc1 [Example 166, methyl 6-[[[1-[4-(2-methylpyrazol-3-yl)phthalazin-1-yl]-4-piperidyl]amino]methyl]pyridine-3-carboxylate] | > 200 nM | – |
